Measurements from ChEMBL document CHEMBL4507301 (2021).

How the values were obtained:
[1] = target: Tyrosine-protein kinase Blk (Homo sapiens) (UniProt P51451); conditions: Compound concentration 1000.0 nM
[2] = target: Phosphatidylinositol 4,5-bisphosphate 3-kinase catalytic subunit delta isoform (Homo sapiens) (UniProt O00329); conditions: Compound concentration 1000.0 nM
[3] = target: Myosin-IIIb (Homo sapiens) (UniProt Q8WXR4); conditions: Compound concentration 1000.0 nM
[4] = target: Discoidin domain-containing receptor 2 (Homo sapiens) (UniProt Q16832); conditions: Compound concentration 1000.0 nM
[5] = target: Dual specificity protein kinase TTK (Homo sapiens) (UniProt P33981); conditions: Compound concentration 1000.0 nM
[6] = target: Serine/threonine-protein kinase ICK (Homo sapiens) (UniProt Q9UPZ9); conditions: Compound concentration 1000.0 nM
[7] = target: Calcium/calmodulin-dependent protein kinase type 1B (Homo sapiens) (UniProt Q6P2M8); conditions: Compound concentration 1000.0 nM
[8] = target: NT-3 growth factor receptor (Homo sapiens) (UniProt Q16288); conditions: Compound concentration 1000.0 nM
[9] = target: Muscarinic acetylcholine receptor M1 (Homo sapiens) (UniProt P11229); conditions: Compound concentration 10.0 uM
[10] = target: Mitogen-activated protein kinase 10 (Homo sapiens) (UniProt P53779); conditions: Compound concentration 1000.0 nM
[11] = target: Serine/threonine-protein kinase Nek11 (Homo sapiens) (UniProt Q8NG66); conditions: Compound concentration 1000.0 nM
[12] = test system: Mast/stem cell growth factor receptor Kit (Homo sapiens), P10721 [V559D,T670I]; conditions: Compound concentration 1000.0 nM
[13] = target: Glycogen synthase kinase-3 alpha (Homo sapiens) (UniProt P49840); conditions: Compound concentration 1000.0 nM
[14] = test system: Fibroblast growth factor receptor 3 (Homo sapiens), P22607 [G697C]; conditions: Compound concentration 1000.0 nM
[15] = target: Ephrin type-A receptor 8 (Homo sapiens) (UniProt P29322); conditions: Compound concentration 1000.0 nM
[16] = target: Serine/threonine-protein kinase PAK 1 (Homo sapiens) (UniProt Q13153); conditions: Compound concentration 1000.0 nM
[17] = test system: Leucine-rich repeat serine/threonine-protein kinase 2 (Homo sapiens), Q5S007 [G2019S]; conditions: Compound concentration 1000.0 nM
[18] = target: Serine/threonine-protein kinase Sgk3 (Homo sapiens) (UniProt Q96BR1); conditions: Compound concentration 1000.0 nM
[19] = target: 5-hydroxytryptamine receptor 1B (Homo sapiens) (UniProt P28222); conditions: Compound concentration 10.0 uM
[20] = target: Serine/threonine-protein kinase Sgk1 (Homo sapiens) (UniProt O00141); conditions: Compound concentration 1000.0 nM
[21] = target: Focal adhesion kinase 1 (Homo sapiens) (UniProt Q05397); conditions: Compound concentration 1000.0 nM
[22] = target: Non-receptor tyrosine-protein kinase TYK2 (Homo sapiens) (UniProt P29597); conditions: Compound concentration 1000.0 nM
[23] = target: Serine/threonine-protein kinase pim-2 (Homo sapiens) (UniProt Q9P1W9); conditions: Compound concentration 1000.0 nM
[24] = target: Protein kinase C eta type (Homo sapiens) (UniProt P24723); conditions: Compound concentration 1000.0 nM
[25] = test system: Epidermal growth factor receptor (Homo sapiens), P00533 [L858R]; conditions: Compound concentration 1000.0 nM
[26] = target: Serine/threonine-protein kinase 10 (Homo sapiens) (UniProt O94804); conditions: Compound concentration 1000.0 nM
[27] = test system: eIF-2-alpha kinase GCN2 (Homo sapiens), Q9P2K8 [S808G]; conditions: Compound concentration 1000.0 nM
[28] = test system: Receptor-type tyrosine-protein kinase FLT3 (Homo sapiens), P36888 [D835Y]; conditions: Compound concentration 1000.0 nM
[29] = test system: Hepatocyte growth factor receptor (Homo sapiens), P08581 [Y1235D]; conditions: Compound concentration 1000.0 nM
[30] = target: Serine/threonine-protein kinase 17A (Homo sapiens) (UniProt Q9UEE5); conditions: Compound concentration 1000.0 nM
[31] = target: Ephrin type-A receptor 4 (Homo sapiens) (UniProt P54764); conditions: Compound concentration 1000.0 nM
[32] = target: Casein kinase I isoform gamma-3 (Homo sapiens) (UniProt Q9Y6M4); conditions: Compound concentration 1000.0 nM
[33] = target: Mitogen-activated protein kinase kinase kinase 11 (Homo sapiens) (UniProt Q16584); conditions: Compound concentration 1000.0 nM
[34] = target: Phosphatidylinositol 4-phosphate 5-kinase type-1 alpha (Homo sapiens) (UniProt Q99755); conditions: Compound concentration 1000.0 nM
[35] = target: Leukocyte tyrosine kinase receptor (Homo sapiens) (UniProt P29376); conditions: Compound concentration 1000.0 nM
[36] = target: Mitogen-activated protein kinase kinase kinase 1 (Homo sapiens) (UniProt Q13233); conditions: Compound concentration 1000.0 nM
[37] = target: Testis-specific serine/threonine-protein kinase 3 (Homo sapiens) (UniProt Q96PN8); conditions: Compound concentration 1000.0 nM
[38] = target: Dual specificity tyrosine-phosphorylation-regulated kinase 1A (Homo sapiens) (UniProt Q13627); conditions: Compound concentration 1000.0 nM
[39] = target: Wee1-like protein kinase (Homo sapiens) (UniProt P30291); conditions: Compound concentration 1000.0 nM
[40] = target: TRAF2 and NCK-interacting protein kinase (Homo sapiens) (UniProt Q9UKE5); conditions: Compound concentration 1000.0 nM
[41] = target: Casein kinase I isoform gamma-2 (Homo sapiens) (UniProt P78368); conditions: Compound concentration 1000.0 nM
[42] = target: 5-hydroxytryptamine receptor 7 (Homo sapiens) (UniProt P34969); conditions: Compound concentration 10.0 uM
[43] = target: Dual specificity mitogen-activated protein kinase kinase 6 (Homo sapiens) (UniProt P52564); conditions: Compound concentration 1000.0 nM
[44] = target: STE20/SPS1-related proline-alanine-rich protein kinase (Homo sapiens) (UniProt Q9UEW8); conditions: Compound concentration 1000.0 nM
[45] = target: Serine/threonine-protein kinase VRK2 (Homo sapiens) (UniProt Q86Y07); conditions: Compound concentration 1000.0 nM

Chain of Glycogen synthase kinase-3 alpha (Homo sapiens) (P49840 2-483 limits assumed): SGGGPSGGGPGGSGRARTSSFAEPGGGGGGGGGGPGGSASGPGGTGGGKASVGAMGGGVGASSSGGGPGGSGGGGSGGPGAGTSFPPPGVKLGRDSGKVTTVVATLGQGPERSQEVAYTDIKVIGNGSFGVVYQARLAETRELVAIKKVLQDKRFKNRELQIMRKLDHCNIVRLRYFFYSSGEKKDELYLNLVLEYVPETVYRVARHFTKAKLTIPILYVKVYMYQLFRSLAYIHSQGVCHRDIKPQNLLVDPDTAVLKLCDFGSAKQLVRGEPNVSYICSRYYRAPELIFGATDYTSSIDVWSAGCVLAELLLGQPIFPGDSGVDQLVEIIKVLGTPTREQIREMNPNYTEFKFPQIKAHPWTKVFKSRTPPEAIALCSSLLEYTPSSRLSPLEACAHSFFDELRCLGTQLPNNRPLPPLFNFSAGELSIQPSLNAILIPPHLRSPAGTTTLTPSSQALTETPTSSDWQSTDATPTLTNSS
Chain of Ephrin type-A receptor 4 (Homo sapiens) (P54764 whole entry, canonical isoform): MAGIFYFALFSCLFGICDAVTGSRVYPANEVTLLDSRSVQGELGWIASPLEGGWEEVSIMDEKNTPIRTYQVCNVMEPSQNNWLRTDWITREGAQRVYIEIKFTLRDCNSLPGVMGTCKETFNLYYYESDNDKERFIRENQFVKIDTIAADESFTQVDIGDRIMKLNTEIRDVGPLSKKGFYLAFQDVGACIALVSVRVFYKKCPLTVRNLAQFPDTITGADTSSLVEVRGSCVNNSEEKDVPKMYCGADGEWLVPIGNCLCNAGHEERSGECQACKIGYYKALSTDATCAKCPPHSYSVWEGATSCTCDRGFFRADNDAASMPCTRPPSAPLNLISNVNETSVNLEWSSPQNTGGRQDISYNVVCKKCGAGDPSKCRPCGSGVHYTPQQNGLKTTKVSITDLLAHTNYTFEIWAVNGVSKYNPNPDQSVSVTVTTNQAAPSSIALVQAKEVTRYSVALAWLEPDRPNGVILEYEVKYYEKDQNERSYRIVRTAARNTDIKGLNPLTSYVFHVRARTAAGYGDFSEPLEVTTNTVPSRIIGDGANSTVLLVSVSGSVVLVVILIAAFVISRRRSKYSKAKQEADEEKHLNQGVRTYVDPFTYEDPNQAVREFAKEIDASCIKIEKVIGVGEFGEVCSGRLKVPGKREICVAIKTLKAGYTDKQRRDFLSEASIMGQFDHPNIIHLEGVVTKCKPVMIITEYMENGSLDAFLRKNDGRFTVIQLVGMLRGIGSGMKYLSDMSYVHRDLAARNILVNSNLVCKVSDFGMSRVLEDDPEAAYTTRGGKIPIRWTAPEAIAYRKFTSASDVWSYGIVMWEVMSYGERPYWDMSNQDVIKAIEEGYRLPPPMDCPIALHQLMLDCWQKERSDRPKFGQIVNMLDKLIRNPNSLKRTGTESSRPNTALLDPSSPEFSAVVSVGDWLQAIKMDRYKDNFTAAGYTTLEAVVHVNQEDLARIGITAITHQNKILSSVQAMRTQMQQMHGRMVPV
Chain of Serine/threonine-protein kinase Sgk1 (Homo sapiens) (O00141 whole entry): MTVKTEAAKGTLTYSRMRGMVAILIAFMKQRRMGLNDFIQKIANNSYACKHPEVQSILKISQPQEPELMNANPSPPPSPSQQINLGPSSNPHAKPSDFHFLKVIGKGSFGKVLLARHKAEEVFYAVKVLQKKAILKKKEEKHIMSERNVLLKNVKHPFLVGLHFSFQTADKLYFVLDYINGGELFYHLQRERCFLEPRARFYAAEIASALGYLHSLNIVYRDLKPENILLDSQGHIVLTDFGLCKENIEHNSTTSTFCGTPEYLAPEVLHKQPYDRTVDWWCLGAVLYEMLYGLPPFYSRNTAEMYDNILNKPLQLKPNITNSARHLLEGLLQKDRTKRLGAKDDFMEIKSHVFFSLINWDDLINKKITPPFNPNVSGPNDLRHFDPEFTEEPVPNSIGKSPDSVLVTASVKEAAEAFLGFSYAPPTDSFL
Chain of Serine/threonine-protein kinase PAK 1 (Homo sapiens) (Q13153 whole entry): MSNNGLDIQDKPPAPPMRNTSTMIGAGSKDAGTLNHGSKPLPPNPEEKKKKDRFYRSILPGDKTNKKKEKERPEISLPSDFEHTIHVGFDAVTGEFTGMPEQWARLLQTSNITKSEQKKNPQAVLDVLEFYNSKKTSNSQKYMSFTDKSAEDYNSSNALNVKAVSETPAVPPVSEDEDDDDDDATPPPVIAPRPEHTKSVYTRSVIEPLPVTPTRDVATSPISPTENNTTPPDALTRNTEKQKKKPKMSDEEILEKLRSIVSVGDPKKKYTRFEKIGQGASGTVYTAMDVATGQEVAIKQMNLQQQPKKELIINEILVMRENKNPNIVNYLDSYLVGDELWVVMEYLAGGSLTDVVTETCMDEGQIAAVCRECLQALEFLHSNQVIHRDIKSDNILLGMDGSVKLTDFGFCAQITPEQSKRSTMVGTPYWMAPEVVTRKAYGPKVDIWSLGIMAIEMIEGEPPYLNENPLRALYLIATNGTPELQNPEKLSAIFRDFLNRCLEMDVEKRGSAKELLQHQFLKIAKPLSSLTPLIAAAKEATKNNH
Chain of Casein kinase I isoform gamma-3 (Homo sapiens) (Q9Y6M4 whole entry, looked up, canonical isoform): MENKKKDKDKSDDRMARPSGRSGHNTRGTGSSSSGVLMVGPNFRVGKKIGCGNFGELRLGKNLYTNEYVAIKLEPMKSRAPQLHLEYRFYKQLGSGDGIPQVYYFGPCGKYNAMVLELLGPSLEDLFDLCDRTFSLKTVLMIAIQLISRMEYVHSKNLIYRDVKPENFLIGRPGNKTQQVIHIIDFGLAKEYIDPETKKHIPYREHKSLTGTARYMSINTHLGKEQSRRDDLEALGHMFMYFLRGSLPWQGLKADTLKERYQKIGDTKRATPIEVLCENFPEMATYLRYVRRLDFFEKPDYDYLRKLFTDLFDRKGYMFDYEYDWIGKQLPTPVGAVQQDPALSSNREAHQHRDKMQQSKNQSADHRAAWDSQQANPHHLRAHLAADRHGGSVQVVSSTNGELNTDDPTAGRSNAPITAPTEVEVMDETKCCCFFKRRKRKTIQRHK
Chain of Mitogen-activated protein kinase kinase kinase 11 (Homo sapiens) (Q16584 whole entry, looked up): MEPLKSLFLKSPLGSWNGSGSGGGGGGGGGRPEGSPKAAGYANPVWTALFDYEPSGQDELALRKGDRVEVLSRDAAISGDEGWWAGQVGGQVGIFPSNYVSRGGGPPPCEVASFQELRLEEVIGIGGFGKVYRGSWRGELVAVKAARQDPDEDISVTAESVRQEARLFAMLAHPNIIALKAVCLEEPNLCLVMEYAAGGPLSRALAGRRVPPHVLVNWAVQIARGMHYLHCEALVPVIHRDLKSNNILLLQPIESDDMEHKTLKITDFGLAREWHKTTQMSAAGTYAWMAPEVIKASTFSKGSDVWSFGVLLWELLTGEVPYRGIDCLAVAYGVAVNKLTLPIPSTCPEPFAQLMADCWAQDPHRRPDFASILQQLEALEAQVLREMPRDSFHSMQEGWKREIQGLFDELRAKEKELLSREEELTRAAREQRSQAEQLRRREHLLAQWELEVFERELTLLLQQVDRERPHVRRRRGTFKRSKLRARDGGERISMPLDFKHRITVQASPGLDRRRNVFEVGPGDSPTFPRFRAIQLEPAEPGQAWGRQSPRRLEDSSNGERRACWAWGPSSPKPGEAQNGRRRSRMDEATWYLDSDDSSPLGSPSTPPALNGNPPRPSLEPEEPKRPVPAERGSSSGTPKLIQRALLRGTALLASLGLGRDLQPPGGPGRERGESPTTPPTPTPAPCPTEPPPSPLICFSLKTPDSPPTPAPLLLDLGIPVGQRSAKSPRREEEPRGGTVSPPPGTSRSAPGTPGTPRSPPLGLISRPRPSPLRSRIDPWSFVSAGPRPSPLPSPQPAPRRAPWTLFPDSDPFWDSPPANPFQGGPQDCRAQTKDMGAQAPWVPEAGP
Chain of Phosphatidylinositol 4-phosphate 5-kinase type-1 alpha (Homo sapiens) (Q99755 whole entry): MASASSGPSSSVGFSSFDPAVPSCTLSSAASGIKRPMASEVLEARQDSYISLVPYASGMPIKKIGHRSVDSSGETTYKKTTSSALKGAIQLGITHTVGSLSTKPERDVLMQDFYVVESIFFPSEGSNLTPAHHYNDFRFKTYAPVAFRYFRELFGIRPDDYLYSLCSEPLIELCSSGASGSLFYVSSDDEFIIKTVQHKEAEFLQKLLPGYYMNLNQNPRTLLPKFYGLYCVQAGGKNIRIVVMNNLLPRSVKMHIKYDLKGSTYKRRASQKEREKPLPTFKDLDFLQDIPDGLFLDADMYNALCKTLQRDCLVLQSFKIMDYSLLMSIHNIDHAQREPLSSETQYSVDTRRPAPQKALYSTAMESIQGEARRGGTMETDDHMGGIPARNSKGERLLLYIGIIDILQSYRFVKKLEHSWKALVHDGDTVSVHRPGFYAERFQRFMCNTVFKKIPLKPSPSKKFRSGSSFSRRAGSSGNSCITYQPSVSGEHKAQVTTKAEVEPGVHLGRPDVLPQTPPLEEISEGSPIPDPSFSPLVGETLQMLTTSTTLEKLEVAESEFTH
Chain of Dual specificity mitogen-activated protein kinase kinase 6 (Homo sapiens) (P52564 whole entry): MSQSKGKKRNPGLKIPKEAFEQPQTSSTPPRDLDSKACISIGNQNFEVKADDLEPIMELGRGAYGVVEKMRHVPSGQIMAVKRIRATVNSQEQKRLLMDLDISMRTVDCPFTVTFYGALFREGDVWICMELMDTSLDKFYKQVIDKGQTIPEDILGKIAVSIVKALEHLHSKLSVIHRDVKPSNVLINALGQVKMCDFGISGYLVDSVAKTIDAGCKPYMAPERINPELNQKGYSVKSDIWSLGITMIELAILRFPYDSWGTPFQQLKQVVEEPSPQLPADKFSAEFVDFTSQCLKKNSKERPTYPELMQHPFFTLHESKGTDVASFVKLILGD
Chain of Testis-specific serine/threonine-protein kinase 3 (Homo sapiens) (Q96PN8 whole entry): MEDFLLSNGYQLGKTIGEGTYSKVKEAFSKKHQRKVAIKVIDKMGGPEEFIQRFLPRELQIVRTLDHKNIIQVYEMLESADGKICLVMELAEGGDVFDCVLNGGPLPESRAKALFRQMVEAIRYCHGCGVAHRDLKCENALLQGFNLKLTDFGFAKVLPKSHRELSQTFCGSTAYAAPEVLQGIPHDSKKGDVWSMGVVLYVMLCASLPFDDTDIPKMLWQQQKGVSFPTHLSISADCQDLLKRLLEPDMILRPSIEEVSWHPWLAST

`C[C@H](c1cccc(C#N)c1)n1cc(Cl)cc(C(N)=O)c1=N` [(R)-9s] was tested, and the residual activity [1] was 78%, the residual activity [2] was 99% and the residual activity [3] was 92%. The residual activity [4] was 100%, the residual activity [5] was 66% and the residual activity [6] was 98%. It also gave a residual activity [7] of 89%, a residual activity [8] of 96% and an inhibition [9] of 9.11%. For the same compound, the residual activity [10] was 100%, the residual activity [11] was 100% and the residual activity [12] was 100%. For the same compound, the residual activity [13] was 61%, the residual activity [14] was 100% and the residual activity [15] was 95%. For the same compound, the residual activity [16] was 100%, the residual activity [17] was 100% and the residual activity [18] was 80%. The inhibition [19] was 9.16%, the residual activity [20] was 77% and the residual activity [21] was 100%. For the same compound, the residual activity [22] was 100%, the residual activity [23] was 100% and the residual activity [24] was 100%. It also gave a residual activity [25] of 86%, a residual activity [26] of 100% and a residual activity [27] of 45%. It also gave a residual activity [28] of 96%, a residual activity [29] of 100% and a residual activity [30] of 85%. It also gave a residual activity [31] of 65%, a residual activity [32] of 100% and a residual activity [33] of 100%. The residual activity [34] was 100%, the residual activity [35] was 99% and the residual activity [36] was 90%. For the same compound, the residual activity [37] was 100%, the residual activity [38] was 65% and the residual activity [39] was 100%. The residual activity [40] was 100%, the residual activity [41] was 99% and the inhibition [42] was -7.43%. It also gave a residual activity [43] of 100%, a residual activity [44] of 100% and a residual activity [45] of 79%.

`C[C@@H](c1cccc(C#N)c1)n1cc(Cl)cc(C(N)=O)c1=N` [(S)-9s] was tested, and the residual activity [1] was 85%, the residual activity [2] was 100% and the residual activity [3] was 100%. The residual activity [4] was 88%, the residual activity [5] was 100% and the residual activity [6] was 81%. It also gave a residual activity [7] of 88%, a residual activity [8] of 0% and an inhibition [9] of 14.9%. The residual activity [10] was 100%, the residual activity [11] was 92% and the residual activity [12] was 100%. It also gave a residual activity [13] of 82%, a residual activity [14] of 79% and a residual activity [15] of 90%. For the same compound, the residual activity [16] was 100%, the residual activity [17] was 100% and the residual activity [18] was 77%. For the same compound, the inhibition [19] was -2.19%, the residual activity [20] was 100% and the residual activity [21] was 100%. It also gave a residual activity [22] of 100%, a residual activity [23] of 100% and a residual activity [24] of 98%. For the same compound, the residual activity [25] was 100%, the residual activity [26] was 86% and the residual activity [27] was 50%. It also gave a residual activity [28] of 97%, a residual activity [29] of 100% and a residual activity [30] of 89%. It also gave a residual activity [31] of 90%, a residual activity [32] of 100% and a residual activity [33] of 100%. For the same compound, the residual activity [34] was 100%, the residual activity [35] was 94% and the residual activity [36] was 82%. For the same compound, the residual activity [37] was 100%, the residual activity [38] was 75% and the residual activity [39] was 100%. The residual activity [40] was 56%, the residual activity [41] was 100% and the inhibition [42] was 4.17%. The residual activity [43] was 100%, the residual activity [44] was 100% and the residual activity [45] was 85%.
